# Assay results published in article PMC11007962, “First-in-human study of GFH018, a small molecule inhibitor of transforming growth factor-β receptor I inhibitor, in patients with advanced solid tumors” (BMC Cancer, 2024).
# “Also recorded” adds a separate entry of the source. Read-outs that look alike come from different tables or passages of the source.
# Tested on: patients with advanced solid tumors
# [1] = 85 mg BID 14d-on/14d-off (N = 12)
# [2] = all 50 patients, none related to GFH018
compound,measurement,setting,value
Cc1cccc(-c2nn3c(c2-c2ccc4ncnn4c2/C=C/C(N)=O)CCC3)n1 [GFH018],TEAE: White blood cell count decreased,[1],2 (16.7%) n (%)
same,TEAE: White blood cells urine positive,[1],3 (25.0%) n (%)
same,"TEAE: White blood cells urine positive, any grade (Table S3)",[1],3 (25.0%) n (%)
same,"TEAE: White blood cells urine positive, maximal CTCAE grade G1",[1],3 (25.0%) n (%)
same,"TEAE: White blood cells urine positive, maximal CTCAE grade G2",[1],0 n (%)
same,"TEAE: White blood cells urine positive, maximal CTCAE grade G3",[1],0 n (%)
same,"TEAE: White blood cells urine positive, maximal CTCAE grade G4",[1],0 n (%)
same,"TEAE: White blood cells urine positive, maximal CTCAE grade G5",[1],0 n (%)
same,TRAE: ALP increased,[1],1 (8.3%) n (%)
same,TRAE: ALT increased,[1],2 (16.7%) n (%)
same,TRAE: AST increased,[1],4 (33.3%) n (%)
same,TRAE: Anemia,[1],3 (25.0%) n (%)
same,TRAE: GGT increased,[1],2 (16.7%) n (%)
same,TRAE: LDH increased,[1],2 (16.7%) n (%)
same,TRAE: Lymphocyte count decreased,[1],2 (16.7%) n (%)
same,TRAE: Protein urine present,[1],1 (8.3%) n (%)
same,TRAE: Proteinuria,[1],1 (8.3%) n (%)
same,"Treatment-emergent Proteinuria (grouped PTs), G1",[1],1 (8.3) n (%)
same,"Treatment-emergent Proteinuria (grouped PTs), G2",[1],1 (8.3) n (%)
same,"Treatment-emergent Proteinuria (grouped PTs), G3",[1],1 (8.3) n (%)
same,"Treatment-emergent Proteinuria (grouped PTs: proteinuria and urine protein present), any grade",[1],3 (25.0) n (%)
same,correlation between incidences of TRAEs and dosages,5–85 mg BID,no obvious correlation
same,dose-limiting toxicities (DLTs),"5–85 mg BID, evaluated during the first cycle",No dose-limiting toxicity occurred; also recorded: no DLTs were observed at any dose level; also recorded: without any DLTs
same,skin toxicity,GFH018 as a single agent,No special concerns related to skin toxicity were raised
same,At least one TEAE,Total (N = 50),48 (96.0%) n (%)
same,At least one TEAE (Table S3),Total (N = 50),48 (96.0%) n (%)
same,At least one TRAE,Total (N = 50),43 (86.0%) n (%)
same,TEAE: ALP increased,Total (N = 50),8 (16.0%) n (%)
same,TEAE: ALT increased,Total (N = 50),8 (16.0%) n (%)
same,"TEAE: ALT increased, any grade (Table S3)",Total (N = 50),8 (16.0%) n (%)
same,"TEAE: ALT increased, maximal CTCAE grade G1",Total (N = 50),8 (16.0%) n (%)
same,"TEAE: ALT increased, maximal CTCAE grade G2",Total (N = 50),0 n (%)
same,"TEAE: ALT increased, maximal CTCAE grade G3",Total (N = 50),0 n (%)
same,"TEAE: ALT increased, maximal CTCAE grade G4",Total (N = 50),0 n (%)
same,"TEAE: ALT increased, maximal CTCAE grade G5",Total (N = 50),0 n (%)
same,TEAE: AST increased,Total (N = 50),11 (22.0%) n (%)
same,"TEAE: AST increased, any grade (Table S3)",Total (N = 50),11 (22.0%) n (%)
same,"TEAE: AST increased, maximal CTCAE grade G1",Total (N = 50),10 (20.0%) n (%)
same,"TEAE: AST increased, maximal CTCAE grade G2",Total (N = 50),1 (2.0%) n (%)
same,"TEAE: AST increased, maximal CTCAE grade G3",Total (N = 50),0 n (%)
same,"TEAE: AST increased, maximal CTCAE grade G4",Total (N = 50),0 n (%)
same,"TEAE: AST increased, maximal CTCAE grade G5",Total (N = 50),0 n (%)
same,TEAE: Abdominal distention,Total (N = 50),7 (14.0%) n (%)
same,TEAE: Abdominal pain,Total (N = 50),9 (18.0%) n (%)
same,TEAE: Anemia,Total (N = 50),17 (34.0%) n (%)
same,TEAE: Asthenia,Total (N = 50),9 (18.0%) n (%)
same,TEAE: Bilirubin conjugated increased,Total (N = 50),8 (16.0%) n (%)
same,TEAE: Blood albumin decreased,Total (N = 50),6 (12.0%) n (%)
same,TEAE: Blood bilirubin increased,Total (N = 50),5 (10.0%) n (%)
same,TEAE: C-reactive protein increased,Total (N = 50),5 (10.0%) n (%)
same,"TEAE: C-reactive protein increased, any grade (Table S3)",Total (N = 50),5 (10.0%) n (%)
same,"TEAE: C-reactive protein increased, maximal CTCAE grade G1",Total (N = 50),5 (10.0%) n (%)
same,"TEAE: C-reactive protein increased, maximal CTCAE grade G2",Total (N = 50),0 n (%)
same,"TEAE: C-reactive protein increased, maximal CTCAE grade G3",Total (N = 50),0 n (%)
same,"TEAE: C-reactive protein increased, maximal CTCAE grade G4",Total (N = 50),0 n (%)
same,"TEAE: C-reactive protein increased, maximal CTCAE grade G5",Total (N = 50),0 n (%)
same,TEAE: Constipation,Total (N = 50),8 (16.0%) n (%)
same,TEAE: Decreased appetite,Total (N = 50),6 (12.0%) n (%)
same,"TEAE: Decreased appetite, any grade (Table S3)",Total (N = 50),6 (12.0%) n (%)
same,"TEAE: Decreased appetite, maximal CTCAE grade G1",Total (N = 50),4 (8.0%) n (%)
same,"TEAE: Decreased appetite, maximal CTCAE grade G2",Total (N = 50),2 (4.0%) n (%)
same,"TEAE: Decreased appetite, maximal CTCAE grade G3",Total (N = 50),0 n (%)
same,"TEAE: Decreased appetite, maximal CTCAE grade G4",Total (N = 50),0 n (%)
same,"TEAE: Decreased appetite, maximal CTCAE grade G5",Total (N = 50),0 n (%)
same,TEAE: GGT increased,Total (N = 50),10 (20.0%) n (%)
same,"TEAE: GGT increased, any grade (Table S3)",Total (N = 50),10 (20.0%) n (%)
same,"TEAE: GGT increased, maximal CTCAE grade G1",Total (N = 50),8 (16.0%) n (%)
same,"TEAE: GGT increased, maximal CTCAE grade G2",Total (N = 50),2 (4.0%) n (%)
same,"TEAE: GGT increased, maximal CTCAE grade G3",Total (N = 50),0 n (%)
same,"TEAE: GGT increased, maximal CTCAE grade G4",Total (N = 50),0 n (%)
same,"TEAE: GGT increased, maximal CTCAE grade G5",Total (N = 50),0 n (%)
same,TEAE: Hypoalbuminemia,Total (N = 50),7 (14.0%) n (%)
same,TEAE: LDH increased,Total (N = 50),8 (16.0%) n (%)
same,"TEAE: LDH increased, any grade (Table S3)",Total (N = 50),8 (16.0%) n (%)
same,"TEAE: LDH increased, maximal CTCAE grade G1",Total (N = 50),8 (16.0%) n (%)
same,"TEAE: LDH increased, maximal CTCAE grade G2",Total (N = 50),0 n (%)
same,"TEAE: LDH increased, maximal CTCAE grade G3",Total (N = 50),0 n (%)
same,"TEAE: LDH increased, maximal CTCAE grade G4",Total (N = 50),0 n (%)
same,"TEAE: LDH increased, maximal CTCAE grade G5",Total (N = 50),0 n (%)
same,TEAE: Lymphocyte count decreased,Total (N = 50),12 (24.0%) n (%)
same,TEAE: Platelet count decreased,Total (N = 50),6 (12.0%) n (%)
same,TEAE: Proteinuria,Total (N = 50),11 (22.0%) n (%)
same,TEAE: Sinus tachycardia,Total (N = 50),10 (20.0%) n (%)
same,TEAE: Urine protein present,Total (N = 50),10 (20.0%) n (%)
same,TEAE: White blood cell count decreased,Total (N = 50),7 (14.0%) n (%)
same,TEAE: White blood cells urine positive,Total (N = 50),5 (10.0%) n (%)
same,"TEAE: White blood cells urine positive, any grade (Table S3)",Total (N = 50),5 (10.0%) n (%)
same,"TEAE: White blood cells urine positive, maximal CTCAE grade G1",Total (N = 50),5 (10.0%) n (%)
same,"TEAE: White blood cells urine positive, maximal CTCAE grade G2",Total (N = 50),0 n (%)
same,"TEAE: White blood cells urine positive, maximal CTCAE grade G3",Total (N = 50),0 n (%)
same,"TEAE: White blood cells urine positive, maximal CTCAE grade G4",Total (N = 50),0 n (%)
same,"TEAE: White blood cells urine positive, maximal CTCAE grade G5",Total (N = 50),0 n (%)
same,TRAE: ALP increased,Total (N = 50),5 (10.0%) n (%)
same,TRAE: ALT increased,Total (N = 50),6 (12.0%) n (%)
same,TRAE: AST increased,Total (N = 50),9 (18.0%) n (%)
same,TRAE: Anemia,Total (N = 50),7 (14.0%) n (%)
same,TRAE: GGT increased,Total (N = 50),5 (10.0%) n (%)
same,TRAE: LDH increased,Total (N = 50),5 (10.0%) n (%)
same,TRAE: Lymphocyte count decreased,Total (N = 50),6 (12.0%) n (%)
same,TRAE: Protein urine present,Total (N = 50),6 (12.0%) n (%)
same,TRAE: Proteinuria,Total (N = 50),7 (14.0%) n (%)
same,"Treatment-emergent Proteinuria (grouped PTs), G1",Total (N = 50),12 (24.0) n (%)
same,"Treatment-emergent Proteinuria (grouped PTs), G2",Total (N = 50),8 (16.0) n (%)
same,"Treatment-emergent Proteinuria (grouped PTs), G3",Total (N = 50),1 (2.0) n (%)
same,"Treatment-emergent Proteinuria (grouped PTs: proteinuria and urine protein present), any grade",Total (N = 50),21 (42.0) n (%)
same,"TRAE ALP increased, all G",all 50 patients,10.0%
same,"TRAE ALP increased, ≥G3",all 50 patients,0%
same,"TRAE ALT increased, all G",all 50 patients,12%
same,"TRAE ALT increased, ≥G3",all 50 patients,0%
same,"TRAE AST increased, all G",all 50 patients,18%
same,"TRAE AST increased, ≥G3",all 50 patients,0%
same,"TRAE GGT increased, all G",all 50 patients,10.0%
same,"TRAE GGT increased, ≥G3",all 50 patients,0%
same,"TRAE LDH increased, all G",all 50 patients,10.0%
same,"TRAE LDH increased, ≥G3",all 50 patients,0%
same,"TRAE anemia, all G",all 50 patients,14%
same,"TRAE anemia, ≥G3",all 50 patients,2%
same,"TRAE lymphocyte count decreased, all G",all 50 patients,12.0%
same,"TRAE lymphocyte count decreased, ≥G3",all 50 patients,2.0%
same,"TRAE proteinuria, all G",all 50 patients,14%
same,"TRAE proteinuria, ≥G3",all 50 patients,2%
same,"TRAE urine protein present, all G",all 50 patients,12.0%
same,"TRAE urine protein present, ≥G3",all 50 patients,0%
same,bleeding events,all 50 patients,No significant cardiotoxicity or bleeding was observed; also recorded: No bleeding events occurred
same,cardiotoxicity,all 50 patients,No significant cardiotoxicity or bleeding was observed; also recorded: No significant cardiotoxicity was observed; also recorded: No significant cardiovascular toxicities were observed
same,changes in serum creatinine levels or estimated glomerular filtration rate,all 50 patients,no clinically significant changes
same,grade 4 or 5 TRAEs,all 50 patients,No grade 4 or 5 TRAEs were observed
same,patients with grade 3 proteinuria,all 50 patients,one
same,patients with at least one TEAE,"all 50 patients, 5-85 mg",~96.0%
same,patients with at least one TRAE,"all 50 patients, 5-85 mg",86.0%
same,patients with at least one ≥ G3 TEAE,"all 50 patients, 5-85 mg",26.0%
same,patients with ≥ G3 TRAEs,"all 50 patients, 5-85 mg",6%
same,deaths,"all 50 patients, all judged unrelated to GFH018",Six
same,patients with at least one serious AE (SAE),[2],nine
same,"treatment discontinuation due to AEs (bilirubin increased, peripheral edema)",[2],two
same,severity of AESIs,"all 50 patients, without clinical symptoms or signs",mild (Grade 1)
same,maximum tolerated dose (MTD),eight dose levels up to 85 mg,not reached
